{"source": "patent US6528251B2", "about": "“Method of managing the chemotherapy of patients who are HIV positive based on the phenotypic drug sensitivity of human HIV strains” (Virco N.V., priority 1996, dated 2003)", "format_in_all_cases": "cell-based, HIV-1", "key": {"[1]": {"test_system": "recombinant virus from patient viral RNA (Example 8)", "test": "Recombinant virus assay (MT4/MTT), patient of Example 8 (therapy history AZT, 3TC and loviride)", "details": "for IC50: Human immunodeficiency virus 1, Table 4, Example 8 patient virus", "experimental": "(§1) RNA was isolated from 100 μl of plasma according to the method described by Boom, R. et al. (1990, supra), and was reverse transcribed with the GeneAmp reverse transcriptase kit (Perkin Elmer) as described by the manufacturer and using an HIV-1 specific downstream primer (OUT3: 5′-CATTGCTCTCCAATTACTGTGATATTTCTCATC-3′; SEQ ID NO: 1). PCR on reverse transcribed RNA was performed with inner and outer primers as described by Kellam, P. and Larder, B. A. (1994, supra). After chloroform extraction and centrifugation on Centricon 100 columns or centrifugation on anion-exchange spin columns (Quiagen), the isolated PCR product was ready for use in the transfection reactions.\n(§2) MT4 cells were subcultured at a density of 250,000 cells/ml before transfection (exponential growth phase). Cells were pelleted and resuspended in phosphate buffered saline (PBS) at a concentration of […]. A 0.8 ml portion (2.5 10E6 cells/ml) was used for each transfection. Transfection was performed with the Bio-Rad Gene pulser making use of 0.4 cm electrode cuvettes. Cells were electroporated in the presence of […] of linearised pHIVΔRT plasmid and approximately 5 μg of RT PCR product at 250SF and 300 V, followed by a 30-min incubation at room temperature. Subsequently, 10 ml of fresh culture medium was added to the cell suspension and incubation was performed at 37° C. in a humidified atmosphere of 5% CO2.\n(§3) During 7 to 10 days following the transfection, cells were monitored for the appearance of cytopathogenic effect (CPE). In the absence thereof, cells were subcultured in different flasks. Subsequently, culture supernatants of transfected cells were used to create a stock of recombinant virus and stored in 1.5 ml aliquots at −70° C.\n(§4) After titration of the new viruses, the stocks were used for antiviral experiments in the presence of serial dilutions of different HIV inhibitors. Titres of the harvested supematants were determined by limited serial dilution titration of virus in MT4 cells.\n(§5) Viruses with a useful titre were used in antiviral experiments. For this purpose, 96-well microtitre plates were filled with 100μl of complete culture medium. Subsequently, stock solutions of compounds were added in 25 μl volumes to series of duplicate wells. HIV- and mock-infected cell samples were included for each drug (or drug combination). Exponentially growing MT4 cells were then transferred to the microtitre plates at a density of 150,000 cells/ml. The cell cultures were then incubated at 37° C. in a humidified atmosphere of 5% CO2. Five days after infection, the viability of the mock- and HIV-infected cells was examined spectrophotometrically by the M1T method (Pauwels, R. et al. J. Virol. Meth. (1988), 20: 309-321) as described in Section 6 below.\n(§6) To each well of the microtiter plates, 20 μl of a solution of MTT (7.5 mg/ml in PBS) was added. The plates were further incubated at 37° C. for 1 h. Then, 150 μl of medium was removed without disturbing the MT4 cell clusters containing the formazan crystals. Solubilization of the formazan crystals was achieved by adding 100 μl 5% Triton X-100 in acidified isopropanol (5 ml concentrated HCl per liter solvent). Complete dissolution of the formazan crystals was obtained after the plates had been placed on a plate shaker for 10 min. Finally the absorbances were read at two wavelengths (540 and 690 nm). From these optical density (OD) data, 50% inhibitory (IC50) and 50% cytotoxic (CC50) concentrations were derived.\n(§7) An HIV-infected patient with a therapy history including AZT, 3TC and loviride donated plasma whose susceptibility to a number of RT inhibitors was determined according to the protocol set out in Example 1. Recombinant wild type HIV strain recIIIB was used as a reference HIV virus."}, "[2]": {"test_system": "recombinant virus from patient viral RNA (Example 6, drug-naive patient)", "test": "Recombinant virus assay (MT4/MTT), drug-naive patient of Example 6", "details": "for IC50: Human immunodeficiency virus 1, Table 2, Example 6 patient virus", "experimental": "as §1, §2, §3, §4, §5, §6\nA drug-naive HIV infected patient donated plasma whose susceptibility to a number of RT inhibitors was determined according to the above described protocol of Example 1. Recombinant wild type HIV strain recIIIB was used in said protocol as a reference HIV virus."}, "[3]": {"test_system": "recombinant virus from patient viral RNA (Example 9)", "test": "Recombinant virus assay (MT4/MTT), patient of Example 9 (multiple nucleoside analogue RT-inhibitors)", "details": "for IC50: Human immunodeficiency virus 1, Table 5, Example 9 patient virus", "experimental": "as §1, §2, §3, §4, §5, §6\nas §7, with “multiple nucleoside analogue RT-inhibitors” for “AZT, 3TC and loviride”"}, "[4]": {"test_system": "Recombinant wild type HIV strain recIIIB", "test": "Antiviral MT4/MTT assay with reference virus recIIIB"}, "[5]": {"test_system": "recombinant virus from patient viral RNA (Example 5, 3TC resistant HIV strains)", "test": "Recombinant virus assay (MT4/MTT), patient of Example 5 (AZT, then AZT+3TC therapy)", "experimental": "as §1, §2, §3, §4, §5, §6\nAn HIV infected patient who received AZT from December 1989 until an undocumented later date, and switched to a combined chemotherapy of AZT+3TC (1:1) from February 1994 until October 1995 donated plasma whose susceptibility to a number of RT inhibitors was determined according to the above described protocol of Example 1. Recombinant wild type HIV strain recIIIB was used in said protocol as a reference HIV virus."}, "[6]": {"test_system": "recombinant virus from patient viral RNA (Example 7, drug-naive patient)", "test": "Recombinant virus assay (MT4/MTT), drug-naive patient of Example 7", "details": "for IC50: Human immunodeficiency virus 1, Table 3, Example 7 patient virus", "experimental": "as §1, §2, §3, §4, §5, §6\nA drug-naive HIV-infected patient donated plasma whose susceptibility to a number of RT inhibitors was determined according to the protocol set out in Example 1. Recombinant wild type HIV strain recIIIB was used as a reference HIV virus."}, "[7]": {"details": "MT4 cells, read-out: Anti-HIV-1 activity IC50 (μM) Exp. 1"}, "[8]": {"details": "MT4 cells, read-out: Anti-HIV-1 activity IC50 (μM) Exp. 2"}, "[9]": {"details": "mean, read-out: Anti-HIV-1 activity IC50 (μM) Mean (1)"}}, "note": "Read-outs that look alike come from different tables or passages of the source."}
{"smiles": "Cc1cn([C@H]2C=C[C@@H](CO)O2)c(=O)[nH]c1=O", "note": "[d4T, stavudine]", "values": [{"measurement": "IC50", "setting": "[1]; [7]", "result": 7.5, "unit": "µM"}, {"measurement": "IC50", "setting": "[1]; [8]", "result": 7.1, "unit": "µM"}, {"measurement": "IC50", "setting": "[1]; [9]", "result": 7.3, "unit": "µM"}, {"measurement": "ratio (1)/(2)", "setting": "[1]; Table 4, patient mean IC50 / recIIIB IC50, Example 8", "result": 1}, {"measurement": "IC50", "setting": "[2]; [7]", "result": 1.31, "unit": "µM"}, {"measurement": "IC50", "setting": "[2]; [8]", "result": 0.97, "unit": "µM"}, {"measurement": "IC50", "setting": "[2]; mean of Exp. 1 and 2, read-out: Anti-HIV-1 activity IC50 (μM) Mean (1)", "result": 1.14, "unit": "µM"}, {"measurement": "ratio (1)/(2)", "setting": "[2]; Table 2, patient mean IC50 / recIIIB IC50, Example 6", "result": 1}, {"measurement": "IC50", "setting": "[3]; [7]", "result": "> 100", "unit": "µM"}, {"measurement": "IC50", "setting": "[3]; [8]", "result": "> 100", "unit": "µM"}, {"measurement": "IC50", "setting": "[3]; [9]", "result": "> 100", "unit": "µM"}, {"measurement": "ratio (1)/(2)", "setting": "[3]; Table 5, patient mean IC50 / recIIIB IC50, Example 9", "result": ">8"}, {"measurement": "IC50", "setting": "[4]; Human immunodeficiency virus 1, Table 2, reference run of Example 6, read-out: Anti-HIV-1 activity IC50 (μM) recIIIB ref (2)", "result": 1.74, "unit": "µM"}, {"measurement": "IC50", "setting": "[4]; Human immunodeficiency virus 1, Table 3, reference run of Example 7, read-out: Anti-HIV-1 activity IC50 (μM) recIIIB ref (2)", "result": 1.37, "unit": "µM"}, {"measurement": "IC50", "setting": "[4]; Human immunodeficiency virus 1, Table 4, reference run of Example 8, read-out: Anti-HIV-1 activity IC50 (μM) recIIIB ref (2)", "result": 5.46, "unit": "µM"}, {"measurement": "IC50", "setting": "[4]; Human immunodeficiency virus 1, Table 5, reference run of Example 9, read-out: Anti-HIV-1 activity IC50 (μM) recIIIB ref (2)", "result": 12, "unit": "µM"}, {"measurement": "IC50", "setting": "[4]; Human immunodeficiency virus 1, read-out: Anti-HIV-1 activity IC50 (μM) recIIIB ref (2), Table 1, reference run of Example 5", "result": 0.12, "unit": "µM"}, {"measurement": "IC50", "setting": "[5]; Human immunodeficiency virus 1, MT4, read-out: Anti-HIV-1 activity IC50 (μM) Exp. 1", "result": 0.07, "unit": "µM"}, {"measurement": "IC50", "setting": "[5]; Human immunodeficiency virus 1, MT4, read-out: Anti-HIV-1 activity IC50 (μM) Exp. 2", "result": 0.49, "unit": "µM"}, {"measurement": "IC50", "setting": "[5]; Human immunodeficiency virus 1, read-out: Anti-HIV-1 activity IC50 (μM) Mean (1)", "result": 0.06, "unit": "µM"}, {"measurement": "ratio (1)/(2)", "setting": "[5]; Table 1, patient mean IC50 / recIIIB IC50, Example 5", "result": 0.5}, {"measurement": "IC50", "setting": "[6]; [7]", "result": 1.14, "unit": "µM"}, {"measurement": "IC50", "setting": "[6]; [8]", "result": 1.66, "unit": "µM"}, {"measurement": "IC50", "setting": "[6]; [9]", "result": 1.4, "unit": "µM"}, {"measurement": "ratio (1)/(2)", "setting": "[6]; Table 3, patient mean IC50 / recIIIB IC50, Example 7", "result": 1}]}
